Test results from publication PMC11480411, “Mucosal sugars delineate pyrazine vs pyrazinone autoinducer signaling in Klebsiella oxytoca” (Nature Communications, 2024).
“And” between values parts separate entries of the source, which are not always exact repeats. Equal entries are not always repeated.

Columns and labels:
K. oxytoca = experiment: Culture growth (OD600) with sialic acid supplementation; assay type: cell-based, Klebsiella oxytoca; conditions: M9+CAS with sialic acid, peer review file, not added to the study
Experimental: as 2 times the recorded value). Importantly, all cultures in this experiment grew. […]
supplemented cultures. All cultures had reached stationary phase after 24 hours. While Neu5Gc cultures did grow slower than Neu5Ac cultures, the term suppression was incorrect. Therefore, we deleted text around Neu5Gc suppression and have changed line 123 to now read: […]
the SI. The following growth analysis was not added to the study.
2. Fig3 describes the role of PLP-enzyme for the production of pyrazines (features 5-9). From
Fig.3a it is clear that features 5 and 7 are different from 6, 8, and 9. Are there functional differences between these 2 groups of compounds in terms of siderophore production? […]
complementation of the pyr mutant with feature 7 could induce siderophore production (Fig4).
What about the features from the other group (6, 8, and 9)?
To address this comment, we performed RNA-seq analysis feeding compound 6 and looked at regulated genes/operons. Similar to compound 7, compound 6 supplementation increased the […]
a table listing specific genes, is now included in the SI. As such, lines 345-348 now read: […]
compound also differentially regulated the transcriptome (201 genes with Padj < 0.05; abs(log2FC) > 1) and enhanced the transcription of genes related to iron acquisition and iron metabolism (Supplemental Information).”
(also on this page, place not known: value ). PLP -enzyme -9). […]

[1] = tested on: wildtype K. oxytoca ATCC 8724; experiment: Leupeptin detection in culture extracts by HPLC-QTOF-MS; assay type: cell-based, Klebsiella oxytoca; conditions: added to cultivation medium
Experimental: 5 mL of the leupeptin reporter strain was cultured aerobically in 10 g/L of LB (Becton Dickinson), yeast extract, GAM (HiMedia Laboratories), horse liver extract (HiMedia Laboratories), malt extract (VWR), meat extract (HiMedia Laboratories), YPD (Dot Scienticifc), brain heart infusion (Becton Dickinson), porcine mucin (Sigma-Aldrich, M1778), clostridial (Becton Dickinson), TSB (VWR), or casamino acid supplemented (5 g/L, VWR) M9 minimal salts (MP Biomedicals) at 30 °C for 24 h at 250 rpm. Cultures were lysed via sonication, centrifuged, and 150 µL of the supernatants were aliquoted into black well clear bottom 96 well plates. GFP fluorescence measurements were performed on a BioTek Synergy H1 plate reader with an excitation wavelength of 488 nm and an emission wavelength of 525 nm. For the carbohydrate screen, the leupeptin reporter strain was cultured in M9 minimal medium (MPbio) supplemented with casamino acid (5 g/L, VWR) and 0.4% indicated sugar aerobically at 30 °C for 24 h at 250 rpm.
For MS-based determination of leupeptin activation, wildtype K. oxytoca ATCC 8724 was cultured in 5 mL of M9 minimal medium supplemented with 5 g/L casamino acids and 0.4% Neu5Ac. […] To measure the area under the curves for specific molecular features, the exact monoprotonated [M + H]^+ mass was calculated and extracted ion chromatographs (EICs) with a 10-ppm error were constructed. […]

∆pyr K. oxytoca = experiment: RNA-seq of compound-supplemented ∆pyr K. oxytoca; assay type: cell-based, Klebsiella oxytoca ATCC 8724; conditions: 10 µM
Experimental: A ∆pyr K. oxytoca glycerol stock was streaked onto an LB-Agar plate supplemented with spectinomycin (50 µg/mL) and incubated aerobically at 30°C for 24 h in a stationary incubator. Single colonies were grown for 24 h aerobically in 5 mL of M9 minimal medium supplemented with 5 g/L casamino acids and 0.4% D-galactose at 30 °C and 250 rpm. Each ∆pyr K. oxytoca overnight culture was diluted 1:1000 into fresh medium (5 mL) and incubated aerobically at 30 °C and 250 rpm to mid-exponential growth (OD600 = 0.8). These conditions abrogated both detectable pyrazine and pyrazinone production. At this point, 10 µM of compound in DMSO, were added to the cultures; an equal volume of DMSO was added to cultures without compound as a solvent vehicle control. The cultures were incubated under aerobic conditions with the compounds for one hour at 30 °C and at 250 rpm. After incubation, the cultures were centrifuged, the supernatants were decanted, and the cell pellets were quickly resuspended in 5 mL of Bacterial RNAProtect (Qiagen). The samples were centrifuged again, and the pellets were frozen on dry ice and stored at −80 °C until RNA extraction. The processed cell pellets were thawed on ice and resuspended in 200 µL of lysis buffer (10 mM Tris, 1 mM EDTA, 5 mg/mL lysozyme, 12.5 µg/mL proteinase K [pH 8.0]) and incubated at room temperature for 10 min. The RNA was extracted via the Qiagen RNeasy Mini kit, treated with TURBO DNase in a total volume of 100 µL at room temperature for 30 min, and extracted again using an RNeasy Mini kit. RNA-seq analysis was conducted by the Yale Center for Genome Analysis. Sequences were aligned to the K. oxytoca ATCC 8724 genome (NC_016612.1). Differential expression analysis was performed through DESeq2 and pathway enrichment analysis was performed through the Funage-Pro web-based platform.

HRH2 = biological target: T1, HRH2 (Homo sapiens, UniProt P25021); experiment: PRESTO-Tango GPCR screen and dose-response; assay type: cell-based; conditions: for HRH2 dose-response raw reporter signal (Fig. 5b source data): replicate wells
T1 construct: expressed in transfected cells; host or cells: HTLA cells (HEK293 line stably expressing β-arrestin-TEV and tTA-Luciferase)
Method in brief: (§1)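 β-Arrestin recruitment Tango format: HTLA cells, PEI transfection of receptor-Tango construct, 16-24 h; test compound 100 μM final, 20 h; Bright-Glo luminescence; RLU/PBS control RLU = fold activation. Dose-response curves run from 10^−4 M to 10^−15 M.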

HRH3 = biological target: T2, HRH3 (Homo sapiens, UniProt Q9Y5N1); experiment: PRESTO-Tango GPCR screen and dose-response; assay type: cell-based; conditions: for HRH3 dose-response raw reporter signal (Fig. 5b source data): replicate wells
T2 construct: expressed in transfected cells; host or cells: HTLA cells (HEK293 line stably expressing β-arrestin-TEV and tTA-Luciferase)
Method in brief: as §1

HRH1 = biological target: T3, HRH1 (Homo sapiens, UniProt P35367); experiment: PRESTO-Tango GPCR screen and dose-response; assay type: cell-based; conditions: for HRH1 dose-response raw reporter signal (Fig. 5b source data): replicate wells
T3 construct: expressed in transfected cells; host or cells: HTLA cells (HEK293 line stably expressing β-arrestin-TEV and tTA-Luciferase)
Method in brief: as §1

[2] = biological target: T4, histamine receptor H4 (HRH4) (Homo sapiens, UniProt Q9H3N8); experiment: PRESTO-Tango GPCR screen and dose-response; assay type: cell-based; conditions: for HRH4 dose-response raw reporter signal (Fig. 5b source data): replicate wells
T4 construct: expressed in transfected cells; host or cells: HTLA cells (HEK293 line stably expressing β-arrestin-TEV and tTA-Luciferase)
Method in brief: as §1

T2 sequence (Q9Y5N1 whole entry): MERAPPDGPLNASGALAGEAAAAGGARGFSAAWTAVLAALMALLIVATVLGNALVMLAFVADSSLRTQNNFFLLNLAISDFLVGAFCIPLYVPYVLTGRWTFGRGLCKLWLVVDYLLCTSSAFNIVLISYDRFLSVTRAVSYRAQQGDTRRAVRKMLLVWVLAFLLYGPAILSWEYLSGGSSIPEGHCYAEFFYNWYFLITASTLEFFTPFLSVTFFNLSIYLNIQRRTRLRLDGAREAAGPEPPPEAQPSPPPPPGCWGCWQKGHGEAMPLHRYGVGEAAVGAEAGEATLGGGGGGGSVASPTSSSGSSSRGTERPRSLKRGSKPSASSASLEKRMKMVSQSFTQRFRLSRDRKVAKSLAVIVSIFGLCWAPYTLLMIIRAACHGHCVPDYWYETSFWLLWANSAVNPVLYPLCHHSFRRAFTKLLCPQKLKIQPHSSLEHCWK
T1 sequence (P25021 whole entry): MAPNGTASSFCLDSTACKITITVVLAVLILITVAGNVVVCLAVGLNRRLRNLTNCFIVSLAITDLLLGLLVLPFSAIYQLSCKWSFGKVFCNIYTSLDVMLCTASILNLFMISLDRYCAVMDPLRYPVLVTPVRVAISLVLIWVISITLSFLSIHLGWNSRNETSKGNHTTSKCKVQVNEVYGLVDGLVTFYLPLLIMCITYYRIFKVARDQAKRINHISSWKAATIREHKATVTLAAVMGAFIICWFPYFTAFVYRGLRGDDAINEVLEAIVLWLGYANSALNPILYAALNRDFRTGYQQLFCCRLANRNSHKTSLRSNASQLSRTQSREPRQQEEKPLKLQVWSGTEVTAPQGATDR
T4 sequence (Q9H3N8 whole entry): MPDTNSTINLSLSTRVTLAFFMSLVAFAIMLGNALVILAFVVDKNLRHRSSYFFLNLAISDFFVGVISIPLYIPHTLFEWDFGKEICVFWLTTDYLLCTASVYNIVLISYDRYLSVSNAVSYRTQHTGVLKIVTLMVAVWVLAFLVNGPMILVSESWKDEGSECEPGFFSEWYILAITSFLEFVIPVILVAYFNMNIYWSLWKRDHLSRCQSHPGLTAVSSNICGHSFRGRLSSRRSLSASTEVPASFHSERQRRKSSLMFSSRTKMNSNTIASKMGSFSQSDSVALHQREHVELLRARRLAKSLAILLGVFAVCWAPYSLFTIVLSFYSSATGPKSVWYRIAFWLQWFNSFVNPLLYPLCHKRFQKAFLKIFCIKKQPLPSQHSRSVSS
T3 sequence (P35367 whole entry): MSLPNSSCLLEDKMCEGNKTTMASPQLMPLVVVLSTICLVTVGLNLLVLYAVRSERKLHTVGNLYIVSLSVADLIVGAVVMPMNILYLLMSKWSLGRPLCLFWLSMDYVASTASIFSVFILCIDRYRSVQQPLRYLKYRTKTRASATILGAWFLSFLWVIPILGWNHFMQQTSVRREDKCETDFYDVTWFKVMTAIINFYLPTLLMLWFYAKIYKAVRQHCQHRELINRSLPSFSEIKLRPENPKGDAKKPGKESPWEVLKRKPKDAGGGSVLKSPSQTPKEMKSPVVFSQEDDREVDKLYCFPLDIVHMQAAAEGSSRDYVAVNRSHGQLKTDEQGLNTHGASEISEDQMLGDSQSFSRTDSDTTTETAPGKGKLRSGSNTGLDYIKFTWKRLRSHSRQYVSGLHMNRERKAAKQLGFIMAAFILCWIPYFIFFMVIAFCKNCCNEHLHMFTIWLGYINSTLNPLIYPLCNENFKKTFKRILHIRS

For `O=C(CO)N[C@H]1[C@H]([C@H](O)[C@H](O)CO)OC(O)(C(=O)O)C[C@@H]1O` (stereo partly drawn) [Neu5Gc, N-glycolneuraminic acid], the culture growth (K. oxytoca) was “grew about as fast as non-” and the “induction of leupeptin (1) production” value [1] was “unable to induce the production of 1”.

With `Cc1cnc(CCC(=O)O)c(Cc2ccccc2)n1` [compound 7] the “number of differentially regulated genes” value (∆pyr K. oxytoca; one hour, vs DMSO, Padj < 0.05, abs(log2FC) > 1) was 644 genes, the “effect on enterobactin BGC transcription” value (∆pyr K. oxytoca; vs DMSO control, RNA-seq) was “significantly enhanced transcription of the enterobactin BGC” and the “KEGG pathway enrichment neglogP: Citrate cycle, downregulated” value (∆pyr K. oxytoca; Funage-Pro, 7 downreg) was 3.041. For the same compound, the “KEGG pathway enrichment neglogP: Glycerolipid metabolism, downregulated” value (∆pyr K. oxytoca; Funage-Pro, 7 downreg) was 4.481, the “KEGG pathway enrichment neglogP: Nitrogen metabolism, downregulated” value (∆pyr K. oxytoca; Funage-Pro, 7 downreg) was 3.06 and the “KEGG pathway enrichment neglogP: ABC Transporters, upregulated” value (∆pyr K. oxytoca; Funage-Pro, 7 upreg) was 4.602. The “KEGG pathway enrichment neglogP: Biosynthesis of siderophore group nonribosomal peptides, upregulated” value (∆pyr K. oxytoca; Funage-Pro, 7 upreg) was 5.301, the “KEGG pathway enrichment neglogP: Oxidative phosphorylation, upregulated” value (∆pyr K. oxytoca; Funage-Pro, 7 upreg) was 3.252 and the “KEGG pathway enrichment neglogP: Phenylalanine Metabolism, upregulated” value (∆pyr K. oxytoca; Funage-Pro, 7 upreg) was 4.301. For the same compound, the “effect on cytochrome-related operons transcription” value (∆pyr K. oxytoca; RNA-seq, pyrazine 7 compared with pyrazinone 3) was “prominently upregulated”, the “HRH2 dose-response raw reporter signal (Fig. 5b source data)” value (“HRH2 dose-response raw reporter signal” below) (HRH2; Log(10)Conc (M) -4) was 62 and 50 and 47 and the “HRH2 dose-response raw reporter signal” value (HRH2; Log(10)Conc (M) -5) was 47 and 50 and 83. For the same compound, the “HRH2 dose-response raw reporter signal” value (HRH2; Log(10)Conc (M) -6) was 18 and 53 and 71, the “HRH2 dose-response raw reporter signal” value (HRH2; Log(10)Conc (M) -7) was 50 (2×) and 74 and the “HRH2 dose-response raw reporter signal” value (HRH2; Log(10)Conc (M) -8) was 44 and 35 and 56. The “HRH2 dose-response raw reporter signal” value (HRH2; Log(10)Conc (M) -9) was 97 and 65 and 41, the “HRH2 dose-response raw reporter signal” value (HRH2; Log(10)Conc (M) -10) was 56 and 32 and 21 and the “HRH2 dose-response raw reporter signal” value (HRH2; Log(10)Conc (M) -11) was 18 and 53 and 44. For the same compound, the “HRH2 dose-response raw reporter signal” value (HRH2; Log(10)Conc (M) -12) was 32 and 65 and 68, the “HRH2 dose-response raw reporter signal” value (HRH2; Log(10)Conc (M) -13) was 35 and 62 and 97 and the “HRH2 dose-response raw reporter signal” value (HRH2; Log(10)Conc (M) -14) was 32 and 47 and 68. For the same compound, the “HRH2 dose-response raw reporter signal” value (HRH2; Log(10)Conc (M) -15) was 77 and 53 and 71, the “activity towards HRH2” value (HRH2; PRESTO-Tango dose-response) was “no activity” and the “HRH3 dose-response raw reporter signal (Fig. 5b source data)” value (shortened to “HRH3 dose-response raw reporter signal”) (HRH3; Log(10)Conc (M) -4) was 106 and 112 and 159. For the same compound, the “HRH3 dose-response raw reporter signal” value (HRH3; Log(10)Conc (M) -5) was 124 and 133 and 80, the “HRH3 dose-response raw reporter signal” value (HRH3; Log(10)Conc (M) -6) was 56 and 106 and 124 and the “HRH3 dose-response raw reporter signal” value (HRH3; Log(10)Conc (M) -7) was 83 and 106 and 180. For the same compound, the “HRH3 dose-response raw reporter signal” value (HRH3; Log(10)Conc (M) -8) was 112 and 142 and 106, the “HRH3 dose-response raw reporter signal” value (HRH3; Log(10)Conc (M) -9) was 97 and 112 and 139 and the “HRH3 dose-response raw reporter signal” value (HRH3; Log(10)Conc (M) -10) was 139 and 97 and 159. The “HRH3 dose-response raw reporter signal” value (HRH3; Log(10)Conc (M) -11) was 91 and 139 and 136, the “HRH3 dose-response raw reporter signal” value (HRH3; Log(10)Conc (M) -12) was 118 and 124 and 203 and the “HRH3 dose-response raw reporter signal” value (HRH3; Log(10)Conc (M) -13) was 59 and 109 and 130. For the same compound, the “HRH3 dose-response raw reporter signal” value (HRH3; Log(10)Conc (M) -14) was 85 and 142 and 124, the “HRH3 dose-response raw reporter signal” value (HRH3; Log(10)Conc (M) -15) was 53 and 91 and 112 and the “activity towards HRH3” value (HRH3; PRESTO-Tango dose-response) was “no activity”. For the same compound, the “HRH1 dose-response raw reporter signal (Fig. 5b source data)” value (“HRH1 dose-response raw reporter signal” for short) (HRH1; Log(10)Conc (M) -4) was 51351 and 49812 and 56357, the “HRH1 dose-response raw reporter signal” value (HRH1; Log(10)Conc (M) -5) was 52012 and 52029 and 55110 and the “HRH1 dose-response raw reporter signal” value (HRH1; Log(10)Conc (M) -6) was 48657 and 55248 and 53819. For the same compound, the “HRH1 dose-response raw reporter signal” value (HRH1; Log(10)Conc (M) -7) was 47504 and 53144 and 54812, the “HRH1 dose-response raw reporter signal” value (HRH1; Log(10)Conc (M) -8) was 48011 and 51622 and 55024 and the “HRH1 dose-response raw reporter signal” value (HRH1; Log(10)Conc (M) -9) was 49795 and 49308 and 52115. The “HRH1 dose-response raw reporter signal” value (HRH1; Log(10)Conc (M) -10) was 46794 and 49653 and 52654, the “HRH1 dose-response raw reporter signal” value (HRH1; Log(10)Conc (M) -11) was 47026 and 50225 and 51761 and the “HRH1 dose-response raw reporter signal” value (HRH1; Log(10)Conc (M) -12) was 51855 and 50992 and 52000. The “HRH1 dose-response raw reporter signal” value (HRH1; Log(10)Conc (M) -13) was 49320 and 51552 and 55349, the “HRH1 dose-response raw reporter signal” value (HRH1; Log(10)Conc (M) -14) was 48035 and 52604 and 51817 and the “HRH1 dose-response raw reporter signal” value (HRH1; Log(10)Conc (M) -15) was 39264 and 44810 and 48161. The “activity towards HRH1” value (HRH1; PRESTO-Tango dose-response) was “no activity”, the “HRH4 dose-response raw reporter signal (Fig. 5b source data)” value (“HRH4 dose-response raw reporter signal” below) ([2]; Log(10)Conc (M) -5) was 245 and 339 and the “HRH4 dose-response raw reporter signal” value ([2]; Log(10)Conc (M) -6) was 295 and 333. For the same compound, the “HRH4 dose-response raw reporter signal” value ([2]; Log(10)Conc (M) -7) was 242 and 304, the “HRH4 dose-response raw reporter signal” value ([2]; Log(10)Conc (M) -8) was 271 and 336 and the “HRH4 dose-response raw reporter signal” value ([2]; Log(10)Conc (M) -9) was 425 and 324. The “HRH4 dose-response raw reporter signal” value ([2]; Log(10)Conc (M) -10) was 307 and 401, the “HRH4 dose-response raw reporter signal” value ([2]; Log(10)Conc (M) -11) was 312 and 366 and the “HRH4 dose-response raw reporter signal” value ([2]; Log(10)Conc (M) -12) was 242 and 292. For the same compound, the “HRH4 dose-response raw reporter signal” value ([2]; Log(10)Conc (M) -13) was 256 and 383, the “HRH4 dose-response raw reporter signal” value ([2]; Log(10)Conc (M) -14) was 271 and 304 and the “HRH4 dose-response raw reporter signal” value ([2]; Log(10)Conc (M) -15) was 286 and 230. For the same compound, the “activity towards HRH4” value ([2]; PRESTO-Tango dose-response) was “no activity”.
